Source: patent US6737383B1, “Herbicidal oxadiazolidines” (priority 1999, dated 2004)

What was measured:
large crabgrass = test: Test C postemergence large crabgrass; assay type: in vivo, Digitaria sanguinalis; settings: 0 to 100 scale, 0 no effect, 100 complete control
Description: (§1) Compounds evaluated in this test were formulated in a non-phytotoxic solvent mixture which included a surfactant and applied to plants that were grown for various periods of time before treatment (postemergence application). A mixture of sandy loam soil and greenhouse potting mix in a 60:40 ratio was used for the postemergence test.
(§2) Plantings of these crops and weed species were adjusted to produce plants of appropriate size for the postemergence test. All plant species were grown using normal greenhouse practices. Crop and weed species include arrowleaf sida (Sida rhombifolia), barnyardgrass (Echinochloa crus-galli), cocklebur (Xanthium strumarium), common ragweed (Ambrosia elatior), corn (Zea mays), cotton (Gossypium hirsutum), eastern black nightshade (Solanum ptycanthum), fall panicum (Panicum dichotomiflorum), field bindweed (Convolvulus arvensis), giant foxtail (Setaria faberii), hairy beggarticks (Bidens pilosa), ivyleaf morningglory (Ipomoea hederacea), johnsongrass (Sorghum halepense), ladysthumb smartweed (Polygonum persicaria), lambsquarters (Chenopodium album), large crabgrass (Digitaria sanguinalis), purple nutsedge (Cyperus rotundus), redroot pigweed (Amaranthus retroflexus), soybean (Glycine max), surinam grass (Brachiaria decumbens), velvetleaf (Abutilon theophrasti) and wild poinsettia (Euphorbia heterophylla).
(§3) Treated plants and untreated controls were maintained in a greenhouse for approximately 14, to 21 days, after which all treated plants were compared to untreated controls and visually evaluated. Plant response ratings, summarized in Table C, were based upon a 0 to 100 scale where 0 was no effect and 100 was complete control. A dash response (−) means no test result.

common poppy = test: Test E common poppy; assay type: in vivo, Papaver rhoeas; settings: Postemergence; for Plant response rating, Comnion poppy: Rate 125 g/ha
How it was run: (§4)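 Postemergence: 60:40 sandy loam/greenhouse potting mix, 1- to 4-leaf stage. Formulation: solvent plus surfactant. Assessment: visual comparison with untreated controls at ~21–28 days.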

galium = test: Test E galium; assay type: in vivo, Galium aparine; settings: Postemergence
Description: (§5) […] A mixture of sandy loam soil and greenhouse potting mix in a 60:40 ratio was used for the postemergence test.
(§6) Plantings of these crops and weed species were adjusted to produce plants of appropriate size for the postemergence test. All plant species were grown using normal greenhouse practices. Crop and weed species include annual bluegrass (Poa annua), blackgrass (Alopecurus myosuroides), black nightshade (Solanum nigra), chickweed (Stellaria media), common poppy (Papaver rhoeas), deadnettle (Lamium amplexicaule), downy brome (Bromus tectorum), field violet (Viola arvensis), galium (Galium aparine), green foxtail (Setaria viridis), Italian ryegrass (Lolium multiflorum), jointed goatgrass (Aegilops cylindrica), kochia (Kochia scoparia), lambsquarters (Chenopodium album), littleseed canarygrass (Phalaris minor), rape (Brassica napus), redroot pigweed (Amaranthus retroflexus), Russian thistle (Salsola kali), scentless chamomile (Matricaria inodora), spring barley (Hordeum vulgare), sugar beet (Beta vulgaris), sunflower (Helianthus annuus), ivyleaf speedwell (Veronica hederaefolia), spring wheat (Triticum aestivum), winter wheat (Triticum aestivum), wild buckwheat (Polygonum convolvulus), wild mustard (Sinapis arvensis), wild oat (Avena fatua), windgrass (Apera spica-venti) and winter barley (Hordeum vulgare).
(§7) Treated plants and untreated controls were maintained in a greenhouse for approximately 21 to 28 days, after which all treated plants were compared to untreated controls and visually evaluated. […] A dash response (-) means no test result.

wild poinsettia = test: Test C postemergence wild poinsettia; assay type: in vivo, Euphorbia heterophylla; settings: 0 to 100 scale, 0 no effect, 100 complete control
Description: as §1, §2, §3

wild buckwheat = test: Test E wild buckwheat; assay type: in vivo, Polygonum convolvulus; settings: Postemergence
How it was run: as §4

eastern black nightshade = test: Test C postemergence eastern black nightshade; assay type: in vivo, Solanum ptycanthum; settings: 0 to 100 scale, 0 no effect, 100 complete control
Description: as §1, §2, §3

sugar beet = test: Test E sugar beet; assay type: in vivo, Beta vulgaris; settings: Preemergence
windgrass = test: Test E windgrass; assay type: in vivo, Apera spica-venti; settings: Preemergence
wild mustard [1] = test: Test E wild mustard; assay type: in vivo, Sinapis arvensis; settings: Postemergence
Description: as §5, §6, §7

soybean = test: Test C postemergence soybean; assay type: in vivo, Glycine max; settings: 0 to 100 scale, 0 no effect, 100 complete control
Description: as §1, §2, §3

lambsquarters = test: Test E lambsquarters; assay type: in vivo, Chenopodium album; settings: Preemergence
barnyardgrass = test: Test C postemergence barnyardgrass; assay type: in vivo, Echinochloa crus-galli; settings: 0 to 100 scale, 0 no effect, 100 complete control
Description: as §1, §2, §3

annual bluegrass = test: Test E annual bluegrass; assay type: in vivo, Poa annua; settings: Preemergence
rape = test: Test E rape; assay type: in vivo, Brassica napus; settings: Postemergence
Description: as §5, §6, §7

kochia = test: Test E kochia; assay type: in vivo, Kochia scoparia; settings: Postemergence
How it was run: as §4

wild mustard [2] = test: Test E wild mustard; assay type: in vivo, Sinapis arvensis; settings: Preemergence
cotton = test: Test C postemergence cotton; assay type: in vivo, Gossypium hirsutum; settings: 0 to 100 scale, 0 no effect, 100 complete control
Description: as §1, §2, §3

cocklebur = test: Test C postemergence cocklebur; assay type: in vivo, Xanthium strumarium; settings: 0 to 100 scale, 0 no effect, 100 complete control
How it was run: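 Visual injury scored 0-100 (100 = complete control) versus untreated plants roughly 14 to 21 days after treatment. Plants were grown to suitable size in 60:40 sandy loam and potting mix, then treated postemergence with surfactant-containing solvent formulations.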

[3] = Rate 250 g/ha, 0 to 100 scale (0 no effect, 100 complete control)
[4] = Rate 62 g/ha, 0 to 100 scale, 0 no effect, 100 complete control
[5] = Rate 125 g/ha, 0 to 100 scale (0 no effect, 100 complete control)
[6] = Rate 500 g/ha, 0 to 100 scale, 0 no effect, 100 complete control
[7] = Rate 500 g/ha, 0 to 100 scale where 0 is no effect and 100 is complete control

## CCn1c(=O)on(C(=O)N(c2ccc(F)cc2)C(C)C)c1=O [Compound 107]
Large crabgrass; Rate 140 g/ha
  Plant response rating Large crabgrass: 70
Large crabgrass; Rate 280 g/ha
  Plant response rating Large crabgrass: 85
Large crabgrass; Rate 560 g/ha
  Plant response rating Large crabgrass: 95
Large crabgrass; Rate 1120 g/ha
  Plant response rating Large crabgrass: 95
Common poppy; Rate 62 g/ha, 0 to 100 scale
  Plant response rating, Common poppy: 0
Common poppy; 0 to 100 scale
  Plant response rating, Comnion poppy: 0
Common poppy; [3]
  Plant response rating, Common poppy: 5
galium; Rate 62 g/ha, 0 to 100 scale
  Plant response rating, Galium: 5
galium; Rate 125 g/ha, 0 to 100 scale
  Plant response rating, Galium: 30
galium; [3]
  Plant response rating, Galium: 30
Wild poinsettia; Rate 140 g/ha
  Plant response rating Wild poinsettia: 0
Wild poinsettia; Rate 280 g/ha
  Plant response rating Wild poinsettia: 15
Wild poinsettia; Rate 560 g/ha
  Plant response rating Wild poinsettia: 40
Wild poinsettia; Rate 1120 g/ha
  Plant response rating Wild poinsettia: 80
Wild buckwheat; Rate 62 g/ha, 0 to 100 scale
  Plant response rating, Wild buckwheat: 0
Wild buckwheat; Rate 125 g/ha, 0 to 100 scale
  Plant response rating, Wild buckwheat: 0
Wild buckwheat; [3]
  Plant response rating, Wild buckwheat: 10
Eastern black nightshade; Rate 140 g/ha
  Plant response rating E. blacknightsh: 50
Eastern black nightshade; Rate 280 g/ha
  Plant response rating E. blacknightsh: 50
Eastern black nightshade; Rate 560 g/ha
  Plant response rating E. blacknightsh: 70
Eastern black nightshade; Rate 1120 g/ha
  Plant response rating E. blacknightsh: 95
Sugar beet; [4]
  Plant response rating, Sugar beet: 70
Sugar beet; [5]
  Plant response rating, Sugar beet: 100
Sugar beet; Rate 250 g/ha, 0 to 100 scale
  Plant response rating, Sugar beet: 100
windgrass; [4]
  Plant response rating, Windgrass: 100
windgrass; [5]
  Plant response rating, Windgrass: 100
Wild mustard [1]; Rate 62 g/ha, 0 to 100 scale
  Plant response rating, Wild mustard: 5
Wild mustard [1]; Rate 125 g/ha, 0 to 100 scale
  Plant response rating, Wild mustard: 90
Wild mustard [1]; [3]
  Plant response rating, Wild mustard: 40
soybean; Rate 140 g/ha
  Plant response rating, Soybean: 45
soybean; Rate 280 g/ha
  Plant response rating, Soybean: 70
soybean; Rate 560 g/ha
  Plant response rating, Soybean: 85
soybean; Rate 1120 g/ha
  Plant response rating, Soybean: 85
lambsquarters; [4]
  Plant response rating, Lambsquarters: 100
lambsquarters; [5]
  Plant response rating, Lambsquarters: 100
lambsquarters; Rate 250 g/ha, 0 to 100 scale
  Plant response rating, Lambsquarters: 100
barnyardgrass; Rate 140 g/ha
  Plant response rating, Barnyardgrass: 70
barnyardgrass; Rate 280 g/ha
  Plant response rating, Barnyardgrass: 85
barnyardgrass; Rate 560 g/ha
  Plant response rating, Barnyardgrass: 90
barnyardgrass; Rate 1120 g/ha
  Plant response rating, Barnyardgrass: 95
Annual bluegrass; [4]
  Plant response rating, Annual bluegras: 70
Annual bluegrass; [5]
  Plant response rating, Annual bluegras: 80
Annual bluegrass; Rate 250 g/ha, 0 to 100 scale
  Plant response rating, Annual bluegras: 85
rape; Rate 62 g/ha, 0 to 100 scale
  Plant response rating, Rape: 20
rape; Rate 125 g/ha, 0 to 100 scale
  Plant response rating, Rape: 30
rape; [3]
  Plant response rating, Rape: 50
kochia; Rate 62 g/ha, 0 to 100 scale
  Plant response rating, Kochia: 5
kochia; Rate 125 g/ha, 0 to 100 scale
  Plant response rating, Kochia: 20
kochia; [3]
  Plant response rating, Kochia: 15
Wild mustard [2]; [4]
  Plant response rating, Wild mustard: 100
Wild mustard [2]; [5]
  Plant response rating, Wild mustard: 85
Wild mustard [2]; Rate 250 g/ha, 0 to 100 scale
  Plant response rating, Wild mustard: 100
cotton; Rate 140 g/ha
  Plant response rating Cotton: 45
cotton; Rate 280 g/ha
  Plant response rating Cotton: 60
cotton; Rate 560 g/ha
  Plant response rating Cotton: 80
cotton; Rate 1120 g/ha
  Plant response rating Cotton: 90
cocklebur; Rate 140 g/ha
  Plant response rating, Cocklebur: 0
cocklebur; Rate 280 g/ha
  Plant response rating, Cocklebur: 50

## CCn1c(=O)on(C(=O)N(c2ccc(F)cc2F)C(C)C)c1=O [Compound 116]
Large crabgrass; Rate 140 g/ha
  Plant response rating Large crabgrass: 0
Large crabgrass; Rate 280 g/ha
  Plant response rating Large crabgrass: 0
Large crabgrass; Rate 560 g/ha
  Plant response rating Large crabgrass: 30
Large crabgrass; Rate 1120 g/ha
  Plant response rating Large crabgrass: 90
Common poppy; Rate 62 g/ha, 0 to 100 scale
  Plant response rating, Common poppy: 30
Common poppy; 0 to 100 scale
  Plant response rating, Comnion poppy: 0
Common poppy; [3]
  Plant response rating, Common poppy: 0
Common poppy; [6]
  Plant response rating, Common poppy: 10
galium; Rate 62 g/ha, 0 to 100 scale
  Plant response rating, Galium: 30
galium; Rate 125 g/ha, 0 to 100 scale
  Plant response rating, Galium: 40
galium; [3]
  Plant response rating, Galium: 40
galium; [6]
  Plant response rating, Galium: 70
Wild poinsettia; Rate 140 g/ha
  Plant response rating Wild poinsettia: 0
Wild poinsettia; Rate 280 g/ha
  Plant response rating Wild poinsettia: 0
Wild poinsettia; Rate 560 g/ha
  Plant response rating Wild poinsettia: 0
Wild buckwheat; Rate 62 g/ha, 0 to 100 scale
  Plant response rating, Wild buckwheat: 0
Wild buckwheat; Rate 125 g/ha, 0 to 100 scale
  Plant response rating, Wild buckwheat: 0
Wild buckwheat; [3]
  Plant response rating, Wild buckwheat: 0
Wild buckwheat; [6]
  Plant response rating, Wild buckwheat: 0
Eastern black nightshade; Rate 140 g/ha
  Plant response rating E. blacknightsh: 0
Eastern black nightshade; Rate 280 g/ha
  Plant response rating E. blacknightsh: 0
Eastern black nightshade; Rate 560 g/ha
  Plant response rating E. blacknightsh: 10
Eastern black nightshade; Rate 1120 g/ha
  Plant response rating E. blacknightsh: 50
Sugar beet; [5]
  Plant response rating, Sugar beet: 50
Sugar beet; Rate 250 g/ha, 0 to 100 scale
  Plant response rating, Sugar beet: 85
Sugar beet; [7]
  Plant response rating, Sugar beet: 95
windgrass; [5]
  Plant response rating, Windgrass: 100
windgrass; [7]
  Plant response rating, Windgrass: 100
Wild mustard [1]; Rate 62 g/ha, 0 to 100 scale
  Plant response rating, Wild mustard: 70
Wild mustard [1]; Rate 125 g/ha, 0 to 100 scale
  Plant response rating, Wild mustard: 20
Wild mustard [1]; [3]
  Plant response rating, Wild mustard: 40
Wild mustard [1]; [6]
  Plant response rating, Wild mustard: 40
soybean; Rate 140 g/ha
  Plant response rating, Soybean: 10
soybean; Rate 280 g/ha
  Plant response rating, Soybean: 10
soybean; Rate 560 g/ha
  Plant response rating, Soybean: 30
soybean; Rate 1120 g/ha
  Plant response rating, Soybean: 40
lambsquarters; [5]
  Plant response rating, Lambsquarters: 100
lambsquarters; Rate 250 g/ha, 0 to 100 scale
  Plant response rating, Lambsquarters: 100
lambsquarters; [7]
  Plant response rating, Lambsquarters: 100
barnyardgrass; Rate 140 g/ha
  Plant response rating, Barnyardgrass: 55
barnyardgrass; Rate 280 g/ha
  Plant response rating, Barnyardgrass: 85
barnyardgrass; Rate 560 g/ha
  Plant response rating, Barnyardgrass: 90
barnyardgrass; Rate 1120 g/ha
  Plant response rating, Barnyardgrass: 90
Annual bluegrass; [5]
  Plant response rating, Annual bluegras: 60
Annual bluegrass; Rate 250 g/ha, 0 to 100 scale
  Plant response rating, Annual bluegras: 85
Annual bluegrass; [7]
  Plant response rating, Annual bluegras: 100
rape; Rate 62 g/ha, 0 to 100 scale
  Plant response rating, Rape: 10
rape; Rate 125 g/ha, 0 to 100 scale
  Plant response rating, Rape: 0
rape; [3]
  Plant response rating, Rape: 0
rape; [6]
  Plant response rating, Rape: 30
kochia; Rate 62 g/ha, 0 to 100 scale
  Plant response rating, Kochia: 0
kochia; Rate 125 g/ha, 0 to 100 scale
  Plant response rating, Kochia: 0
kochia; [3]
  Plant response rating, Kochia: 0
kochia; [6]
  Plant response rating, Kochia: 0
Wild mustard [2]; [5]
  Plant response rating, Wild mustard: 75
Wild mustard [2]; Rate 250 g/ha, 0 to 100 scale
  Plant response rating, Wild mustard: 85
Wild mustard [2]; [7]
  Plant response rating, Wild mustard: 65
cotton; Rate 140 g/ha
  Plant response rating Cotton: 10
cotton; Rate 280 g/ha
  Plant response rating Cotton: 50
cotton; Rate 560 g/ha
  Plant response rating Cotton: 50
cocklebur; Rate 140 g/ha
  Plant response rating, Cocklebur: 0
cocklebur; Rate 560 g/ha
  Plant response rating, Cocklebur: 0
cocklebur; Rate 1120 g/ha
  Plant response rating, Cocklebur: 50
